15 molecules from patent US4325954A, “Pyrrolopyrimidinones and pyrroloimidazolones and their compositions and therapeutic methods” (Laboratoires Jacques Logeais, priority 1979, dated 1982) can be followed below.

Molecules are shown by their SMILES. Read-outs that look alike come from different tables or passages of the source.

Series [1] in a line: Acute toxicity in mice (oral or intraperitoneal single dose). The conditions noted are these: mouse, in vivo, observed at least one week. On the procedure: Each compound was administered orally or intraperitoneally as a single dose.
Series [2] concerns palpebral ptosis induced by a reserpine injection. Put plainly: Antidepressant activity: antagonism of palpebral ptosis induced by reserpine injection. The format is in vivo. The conditions noted are these: Mus musculus; mice, oral, one hour prior to reserpine 2 mg/kg ip; recorded hourly for 3 hours (Rubin's scale); read-out: ptosis reserpine ED50 (dosage which inhibits palpebral ptosis by 50%). On the procedure: The antidepressant activity of each compound was evaluated in mice from its ability to antagonize palpebral ptosis induced by a reserpine injection. The different materials were administered orally, as a preventive treatment, one hour prior to intraperitoneal injection of reserpine (2 mg/kg). The intensity of the palpebral ptosis was then recorded at hourly intervals, for a period of time of 3 hours, according to a semi-quantitative scale (Rubin's scale). The test materials were administered at several dosage levels and, for most of them, the 50% efficient dosage (ED50) which inhibits palpebral ptosis by a factor of 50% could be evaluated.

The test system of series [3] is peripheral and central cholinergic effects of oxotremorine. The experiment in a line: Atropine activity: effect on peripheral and central cholinergic effects of oxotremorine. The format is in vivo. The conditions noted are these: 100 mg/kg oral, 60 minutes prior to subcutaneous oxotremorine 2 mg/kg. As to the method: In view of the detrimental atropine-like side-effect of the conventional antidepressants, this potential property was systematically investigated in the compounds of the formula (I).
The different materials were administered orally 60 minutes prior to subcutaneous oxotremorine injection at a dosage of 2 mg/kg.
15 minutes, and then 30 and 45 minutes after injection of the cholinergic agent, the various symptoms reflecting a parasympathetic stimulation were evaluated according to a semi-quantitative arbitrary scale (from 0 to 4).
peripheral cholinergic stimulation symptoms: tearfulness, salivation;
central cholinergic stimulation: trembling, Straub's phenomenon.

The test system of the next series is cardiovascular system. Put plainly: Effects on the cardiovascular system in dogs. The format is in vivo. The conditions noted are these: intravenous, 0.1 mg/kg to 10 mg/kg. As to the method: The compounds of the formula (I) were administered intravenously in dogs, at dosages from 0.1 mg/kg to 10 mg/kg. The changes of blood pressure, of the femoral arterial rate, of vascular resistance subsequent to said injections were recorded.

Setting [4] is: ip, intraperitoneal, read-out: LD50 ip.

As a reminder, the LD50 is the dose expected to kill half of the subjects tested. In general, ED50 refers to the midpoint of the dose-response relation. `CC1N=C2CC(c3ccccc3)CN2C1=O` (racemic) [Example 1]: the LD50 in series [1] (setting [4]) was > 200 mg/kg; in series [1] (oral, read-out: LD50 po), > 200 mg/kg. In addition, the 50% effective dose (ED50) in series [2] is ~33 mg/kg.
For the molecule `CC(C)C1N=C2CC(c3ccccc3)CN2C1=O` (racemic) [Example 2], the LD50 was > 200 mg/kg in series [1] (setting [4]) and > 200 mg/kg in series [1] (oral, read-out: LD50 po). Moreover, the ED50 in series [2] was > 30 mg/kg.
Regarding `O=C1C(c2ccccc2)N=C2CC(c3ccccc3)CN12` (racemic) [Example 3], the LD50 was > 200 mg/kg in series [1] (setting [4]) and > 200 mg/kg in series [1] (oral, read-out: LD50 po). Further, the ED50 in series [2] is ~30 mg/kg.
For the molecule `CC(C)C1N=C2CCC(c3ccccc3)CN2C1=O` (racemic) [Example 10], the “inhibitor activity on cholinergic effects of oxotremorine” value in series [3] is reported as “slight inhibitor activity”. The LD50 was > 200 mg/kg in series [1] (setting [4]) and > 200 mg/kg in series [1] (oral, read-out: LD50 po). Also, in series [2], the ED50 was ~100 mg/kg.
Consider `O=C1C(Cc2ccccc2)N=C2CC(c3ccccc3)CN12` (stereo not shown) [Example 4], for which the LD50 in series [1] (setting [4]) was < 200 mg/kg; in series [1] (oral, read-out: LD50 po), > 200 mg/kg. Further, the ED50 in series [2] is < 30 mg/kg.
As for `CCOC(=O)C1N=C2CC(c3ccccc3)CN2C1=O` (stereo not shown) [Example 5], the vasoconstrictive action result in the series on cardiovascular system is “slightly vasoconstrictive”. Besides, the LD50 in series [1] (setting [4]) was > 200 mg/kg; in series [1] (oral, read-out: LD50 po) it was > 200 mg/kg. Besides, the ED50 in series [2] is ~7 mg/kg.
`CCOC(=O)CC1N=C2CC(c3ccccc3)CN2C1=O` (stereo not shown) [Example 6]: the “action on the blood pressure” value in the series on cardiovascular system is “slight hypotensive action”. The LD50 is > 200 mg/kg in series [1] (setting [4]) and > 200 mg/kg in series [1] (oral, read-out: LD50 po). Besides, the ED50 in series [2] is ~100 mg/kg.
Turning to `CCOC(=O)CCC1N=C2CC(c3ccccc3)CN2C1=O` (stereo not shown) [Example 7], the LD50 in series [1] (setting [4]) is > 200 mg/kg; in series [1] (oral, read-out: LD50 po) it was > 200 mg/kg. Further, the ED50 in series [2] was ~30 mg/kg.
On to `CSCCC1N=C2CC(c3ccccc3)CN2C1=O` (stereo not shown) [Example 8], for which, in the series with cardiovascular system, the “action on the blood pressure” value is on record as “slight hypotensive action”. The LD50 in series [1] (setting [4]) is > 200 mg/kg; in series [1] (oral, read-out: LD50 po) it was > 200 mg/kg. Also, in series [2], the ED50 is ~30 mg/kg.
Regarding `CCOC(=O)C1N=C2CCC(c3ccccc3)CN2C1=O` (stereo not shown) [Example 12], the LD50 in series [1] (setting [4]) was > 200 mg/kg; in series [1] (oral, read-out: LD50 po), > 200 mg/kg. Also, in series [2], the median effective dose (ED50) is ~30 mg/kg.
Regarding `CCOC(=O)CCC1N=C2CCC(c3ccccc3)CN2C1=O` (stereo not shown) [Example 13], the LD50 in series [1] (setting [4]) was > 200 mg/kg; in series [1] (oral, read-out: LD50 po) it was > 200 mg/kg. Besides, in series [2], the ED50 is ~30 mg/kg.
On to `O=C1CCN=C2CC(c3ccccc3)CN12` (stereo not shown) [Example 14], for which the LD50 in series [1] (setting [4]) is > 200 mg/kg; in series [1] (oral, read-out: LD50 po) it was > 200 mg/kg. In addition, the ED50 in series [2] turned out to be 5 mg/kg.
For the molecule `O=C1CCN=C2CC(c3cc4ccccc4o3)CN12` (stereo not shown) [Example 15], the LD50 in series [1] (setting [4]) was > 200 mg/kg; in series [1] (oral, read-out: LD50 po) it was > 200 mg/kg. The ED50 in series [2] is ~33 mg/kg.
Turning to `O=C1CCN=C2CCC(c3ccccc3)N12` (stereo not shown) [Example 17], the LD50 in series [1] (setting [4]) was > 200 mg/kg; in series [1] (oral, read-out: LD50 po) it was > 200 mg/kg. Also, the ED50 in series [2] is < 100 mg/kg.
For `O=C1CCCN=C2CC(c3ccccc3)CN12` (stereo not shown) [Example 18], the LD50 in series [1] (setting [4]) was > 200 mg/kg; in series [1] (oral, read-out: LD50 po) it was > 200 mg/kg. In addition, the ED50 in series [2] was < 33 mg/kg.
